Patent publication US10703698B2, “Compounds which activate estrogen receptors and compositions and methods of using the same” (The Board of Trustees of the University of Illinois, priority 2016, dated 2020)
“Also recorded” adds a separate entry of the source.

Key:
[1] = molecular target: T1, purified full-length human ERα (Homo sapiens, UniProt P03372); assay: competitive radiometric binding assay, relative binding affinity (RBA); details: relative to estradiol = 100
T1 construct: using purified full-length human ERα and ERβ
T1 sequence (P03372 1-595): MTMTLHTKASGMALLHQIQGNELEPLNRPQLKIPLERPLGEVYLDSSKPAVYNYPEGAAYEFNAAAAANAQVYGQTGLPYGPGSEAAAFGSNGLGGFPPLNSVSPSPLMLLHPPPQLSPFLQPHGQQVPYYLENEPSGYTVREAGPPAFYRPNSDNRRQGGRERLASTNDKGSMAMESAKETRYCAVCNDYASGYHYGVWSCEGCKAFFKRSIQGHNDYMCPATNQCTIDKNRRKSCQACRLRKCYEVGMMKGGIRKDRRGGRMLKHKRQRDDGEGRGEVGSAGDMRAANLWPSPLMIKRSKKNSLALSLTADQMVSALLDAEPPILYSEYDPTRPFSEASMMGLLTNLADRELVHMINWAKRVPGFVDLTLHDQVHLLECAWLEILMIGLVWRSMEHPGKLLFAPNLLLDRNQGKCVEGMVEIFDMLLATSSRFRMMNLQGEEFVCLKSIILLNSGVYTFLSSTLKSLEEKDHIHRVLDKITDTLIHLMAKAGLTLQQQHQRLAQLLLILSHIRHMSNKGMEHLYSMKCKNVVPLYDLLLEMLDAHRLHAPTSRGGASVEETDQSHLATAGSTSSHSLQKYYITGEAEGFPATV
From the text: (§1) FIG. 1. […] […]

[2] = molecular target: T2, purified full-length human ERβ (Homo sapiens, UniProt Q92731); assay: as above; details: relative to estradiol = 100
T2 construct: using purified full-length human ERα and ERβ
From the text: as §1

PgR gene = assay: PgR (genomic gene) mRNA expression, qPCR; details: MCF-7 cells; 1 μM PaPE or 10 nM E2 for 4 h where stated; versus vehicle or E2
From the text: (§2) Quantitation of signal intensities is shown in panel at the right.

LRRC54 gene = assay: LRRC54 (non-genomic gene) mRNA expression, qPCR; details: MCF-7 cells; 1 μM PaPE or 10 nM E2 for 4 h where stated; versus vehicle, E2 or compound 2
From the text: as §2

eNOS = eNOS activation in primary endothelial cells (14C-L-arginine to 14C-L-citrulline); format: cell-based, bovine; details: 15 min; 10 nM ligand (FIG. 9E)
LRRC54 gene vs PgR gene = assay: preferential activation of non-genomic (LRRC54) over genomic (PgR) gene; details: relative to activation by E2
MCF-7 cells = assay: oleic acid (OA)-induced MCF-7 cell proliferation, WST1; details: 100 nM OA, agent 1 μM, 6 days
Protocol: Screening of FFAs for stimulating effects on cell proliferation. […] FFA mix contains all the single free fatty acids tested in this experiment. Lipid mix (mixture of cholesterol and fatty acids) was purchased from Sigma. Six replicates were used in each assay, and the experiment was repeated twice. […] Mean±SEM is plotted.
(D) OA effect on MCF-7 cell proliferation with and without PaPE-1. Dose-response of OA on cell proliferation was tested alone or in combination with and without PaPE-1 (1 μM) for 6 days before WST1 assay. The experiment has six technical replicates and was repeated twice. A two-way analysis of variance (ANOVA) model was fitted to assess the contribution of OA dose and inhibitor (Ctrl, and PaPE-1) treatment on MCF-7 cell proliferation. When the main effects were statistically significant at α=0.05, pairwise t-tests with a Bonferroni correction were employed to identify if treatment were statistically different from each other. **** p<0.0001. Mean±SEM is plotted. […] In the above cell proliferation experiments, MCF-7 cells were treated in whole growth medium adding the designated compounds. The treatment went for 6 days and OD at 450 was measured by WST1 assay. […] The experiment is repeated twice. A two-way analysis of variance (ANOVA) model was fitted to assess the contribution of ligand (Veh or OA) and inhibitor (Ctrl, 4-OH-Tam, Fulv, RAD001 and PaPE-1) treatment on MCF-7 cell proliferation. When the main effects were statistically significant at α=0.05, pairwise t-tests with a Bonferroni correction were employed to identify if treatment were statistically different from each other. **** p<0.0001. Mean±SEM is plotted. […] The MCF-7 cells were treated with Veh, 1 μM 4-OH-tam, 1 μM Fulv, and 1 μM PaPE-1 for six days before WST-1 assay in serum from 63 obese individuals (Left) and in standard cell culture (Right).

T2 sequence (Q92731 whole entry): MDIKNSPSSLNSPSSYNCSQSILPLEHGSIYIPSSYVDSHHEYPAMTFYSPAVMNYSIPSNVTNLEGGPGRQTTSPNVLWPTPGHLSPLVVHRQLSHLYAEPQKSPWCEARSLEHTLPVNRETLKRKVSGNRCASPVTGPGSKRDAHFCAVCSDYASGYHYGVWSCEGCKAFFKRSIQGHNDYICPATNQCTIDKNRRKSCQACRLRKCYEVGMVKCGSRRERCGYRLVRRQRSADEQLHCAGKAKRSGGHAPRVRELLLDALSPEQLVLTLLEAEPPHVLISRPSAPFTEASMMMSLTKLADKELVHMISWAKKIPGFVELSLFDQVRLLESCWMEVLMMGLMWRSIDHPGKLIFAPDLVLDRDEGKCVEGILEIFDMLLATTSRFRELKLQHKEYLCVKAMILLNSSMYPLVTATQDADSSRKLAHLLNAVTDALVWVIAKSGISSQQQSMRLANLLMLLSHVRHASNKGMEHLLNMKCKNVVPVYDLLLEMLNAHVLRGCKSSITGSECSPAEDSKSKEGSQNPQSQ

| Structure (SMILES) | ERα RBA (relative binding affinity) [1] | ERβ RBA (relative binding affinity) [2] | PgR (genomic gene) mRNA expression, in words (PgR gene) | LRRC54 (non-genomic gene) mRNA expression, in words (LRRC54 gene) | eNOS / NOS activity (eNOS) | preference for activation of the non-genomic pathway (LRRC54 over PgR), in words (LRRC54 gene vs PgR gene) | OA-induced MCF-7 cell proliferation with added agent (MCF-7 cells) |
| --- | --- | --- | --- | --- | --- | --- | --- |
| Cc1cc(C)cc(-c2ccc3c(c2)CCC3O)c1 (stereo not drawn) [Compound 12, 5-(3,5-dimethylphenyl)-2,3-dihydro-1H-inden-1-ol] | 0.001 ± 0 | 0.002 ± 0.001 | strongly stimulate the genomic gene PgR | some non-genomic activity | – | – | – |
| Cc1cc(-c2ccc(C(C)O)cc2)cc(C)c1O (stereo not drawn) [Compound 15, 4′-(1-hydroxyethyl)-3,5-dimethyl-[1,1′-biphenyl]-4-ol] | 0.002 ± 0.001 | 0.005 ± 0.003 | – | – | increased NOS activity | some selectivity for the non-genomic gene but less than that of compound 2 | – |
| Cc1cc(-c2ccc3c(c2)CCCC3O)cc(C)c1O (stereo not drawn) [Compound 16, 6-(4-hydroxy-3,5-dimethylphenyl)-1,2,3,4-tetrahydronaphthalen-1-ol] | 0.002 ± 0.001 | 0.004 ± 0.003 | – | – | increased NOS activity | some selectivity for the non-genomic gene but less than that of compound 2 | – |
| Cc1cc(-c2cccc(CO)c2)cc(C)c1O [Compound 24] | 0.005 ± 0.001 | 0.004 ± 0 | slight higher than the vehicle level | – | – | – | – |
| Cc1cc(-c2cc(C)c(O)c(C)c2)ccc1CO [Compound 26] | <0.001 | 0.002 ± 0.001 | slight higher than the vehicle level | – | – | – | – |
| Cc1cc(-c2ccc(CO)c(C(F)(F)F)c2)cc(C)c1O [Compound 27] | 0.003 ± 0.001 | 0.003 ± 0 | slight higher than the vehicle level | – | – | – | – |
| COC1CC(O)c2ccc(-c3cc(C)c(O)c(C)c3)cc21 (stereo not drawn) [Compound 30] | 0.002 ± 0.001 | 0.002 ± 0.001 | elevated both genomic and nongenomic gene expression to a higher level than does its parent compound 29 | elevated both genomic and nongenomic gene expression to a higher level than does its parent compound 29 | – | – | – |
| Oc1ccc(-c2ccc3c(c2)CCC3O)cc1 (stereo not drawn) [Compound 32] | 0.005 ± 0.001 | 0.190 ± 0.04 | stimulate PgR gene expression at a level close to that of E2 | – | – | – | – |
| Cc1cc(-c2cccc(CCO)c2)cc(C)c1O [Compound 44, 3′-(2-hydroxyethyl)-3,5-dimethyl-[1,1′-biphenyl]-4-ol] | 0.001 | 0.001 | – | preferentially stimulate LRRC54 better than E2 | – | – | – |
| Cc1cc(-c2ccc(CCO)cc2)cc(C)c1O [Compound 45, 4′-(2-hydroxyethyl)-3,5-dimethyl-[1,1′-biphenyl]-4-ol] | 0.001 | 0.002 | – | preferentially stimulate LRRC54 better than E2 | – | – | – |
| Cc1cc(-c2ccc3c(c2)CCC3O)ccc1O (stereo not drawn) [Compound 55, 5-(4-hydroxy-3-methylphenyl)-2,3-dihydro-1H-inden-1-ol] | 0.002 | 0.004 | stimulated two fold greater than that with E2 | – | – | – | – |
| Cc1cc(-c2ccc3c(c2)CCC3O)cc(CO)c1O (stereo not drawn) [Compound 56, 5-(4-hydroxy-3-(hydroxymethyl)-5-methylphenyl)-2,3-dihydro-1H-inden-1-ol] | <0.001 | <0.001 | – | increases the expression of the non-genomic LRRC54 gene | – | considerable non-genomic gene selectivity | – |
| OCc1cc(-c2ccc3c(c2)CCC3O)ccc1O (stereo not drawn) [Compound 57, 5-(4-hydroxy-3-(hydroxymethyl)phenyl)-2,3-dihydro-1H-inden-1-ol] | – | – | – | increases the expression of the non-genomic LRRC54 gene | – | considerable non-genomic gene selectivity | – |
| Cc1cc(-c2ccc(O)c(CO)c2)cc(C)c1O [Compound 59, 3′-(hydroxymethyl)-3,5-dimethyl-[1,1′-biphenyl]-4,4′-diol] | – | – | – | expression level is less than for compound 2 | – | selective expression of the non-genomic LRRC54 gene compared to E2 | – |
| Cc1cc(-c2ccc(CO)c(O)c2)cc(C)c1O [Compound 60, 4-(hydroxymethyl)-3′,5′-dimethyl-[1,1′-biphenyl]-3,4′-diol] | <0.001 | ~0.001 | – | expression level is less than for compound 2 | – | selective expression of the non-genomic LRRC54 gene compared to E2 | – |
| Oc1c(Cl)cc(-c2ccc3c(c2)CCC3O)cc1Cl (stereo not drawn) [Compound 63, 5-(3,5-dichloro-4-hydroxyphenyl)-2,3-dihydro-1H-inden-1-ol] | 0.005 | 0.006 | – | two-fold less than that of compound 2 | – | stimulates the non-genomic gene LRRC54 selectively | – |
| OCc1cc(-c2cc(Cl)c(O)c(Cl)c2)ccc1O [Compound 64, 3,5-Dichloro-3′-(hydroxymethyl)-[1,1′-biphenyl]-4,4′-diol] | – | – | – | expression level is less than for compound 2 | – | selective expression of the non-genomic LRRC54 gene compared to E2 | – |
| CC(=O)NCCNC(=O)CCC(C)(c1ccc(O)cc1)c1ccc(O)cc1 [PaPE-4, Diphenolic acid-NHEtNHAc] | – | – | – | – | increased NOS activity | – | – |
| CO[C@H]1C[C@@H]2CC[C@@H](C)[C@@](O)(O2)C(=O)C(=O)N2CCCC[C@H]2C(=O)O[C@H]([C@H](C)C[C@@H]2CC[C@@H](OCCO)[C@H](OC)C2)CC(=O)[C@H](C)/C=C(\C)[C@@H](O)[C@@H](OC)C(=O)[C@H](C)C[C@H](C)/C=C/C=C/C=C/1C [RAD001] | – | – | – | – | – | – | blocked OA-induced cell proliferation; also recorded: suppressed |
| O=C(c1ccc(OCCN2CCCCC2)cc1)c1c(-c2ccc(O)cc2)sc2cc(O)ccc12 [Raloxifene, reference compound] | – | – | blocks expression of both the non-genomic LRRC54 and genomic PgR genes | blocks expression of both the non-genomic LRRC54 and genomic PgR genes | – | Neither Raloxifene (RAL) nor hydroxytamoxifen (TOT) show selective activation of the non-genomic gene LRRC54 | – |
